Read-outs that look alike come from different tables or passages of the source. Ends that are not written are not given here.
System: MDR-EAEC isolates
Procedure: Initially, characterization of Lfcin (17–30) was performed by determining its minimum inhibitory concentration (MIC), minimum bactericidal concentration (MBC), in vitro stability assays (high-end temperatures, the physiological concentration of cationic salts and proteases), and in vitro safety assays (sheep erythrocyte hemolysis and secondary cell line cytotoxicity) (Supplementary Files S1–S3). The membrane permeabilization effect of Lfcin (17–30) was assessed by flow cytometry, whereas outer and inner membrane permeability of MDR-EAEC strains treated with 1 × and 2 × MIC levels of Lfcin (17–30) was carried out based on the nitrocefin activity as well as the release of cytoplasmic β-galactosidase activity, respectively (Supplementary File S4). Further, Lfcin (17–30) was evaluated for its antibacterial activity against beneficial lactobacilli (L. acidophilus MTCC 10307 and L. rhamnosus MTCC 1408) (Supplementary File S5).
To explore the utility of Lfcin (17-30) as a therapeutic molecule, in vitro stability was evaluated by exposing it to high-end temperatures, proteases as well as the physiological concentration of salts. In brief, the effect of temperature was investigated by incubating Lfcin (17-30) at 70 °C and 90 °C for 5, 15, and 30 min followed by measuring the MIC value. The effect of proteases (trypsin and proteinase-K) on the antimicrobial activity of Lfcin (17-30) [Protease: AMP- 1:100 (w/w)] was investigated by incubating with the respective protease at 37 °C for 30 sec, 2, 5, 15 and 30 min, followed by inactivating the enzyme at 90 °C for 10 min and measuring the MIC value. The stability of Lfcin (17-30) in the presence of high salt concentrations (150 mM and 2 mM MgCl2) was estimated in regular MH broth. Appropriate controls were included in each experiment.

[1] = MgCl2 (2 mM), regular MH broth, MDR 1
[2] = MgCl2 (2 mM), regular MH broth, MDR 2
[3] = MgCl2 (2 mM), regular MH broth, MDR 3
[4] = NaCl (150 mM), regular MH broth, MDR 1
[5] = NaCl (150 mM), regular MH broth, MDR 2
[6] = NaCl (150 mM), regular MH broth, MDR 3
[7] = peptide incubated at 70°C for 5 min, MDR 1
[8] = peptide incubated at 70°C for 5 min, MDR 2
[9] = peptide incubated at 70°C for 5 min, MDR 3
[10] = peptide incubated at 70°C for 15 min, MDR 1
[11] = peptide incubated at 70°C for 15 min, MDR 2
[12] = peptide incubated at 70°C for 15 min, MDR 3
[13] = peptide incubated at 70°C for 30 min, MDR 1
[14] = peptide incubated at 70°C for 30 min, MDR 2
[15] = peptide incubated at 70°C for 30 min, MDR 3
[16] = peptide incubated at 90°C for 5 min, MDR 1
[17] = peptide incubated at 90°C for 5 min, MDR 2
[18] = peptide incubated at 90°C for 5 min, MDR 3
[19] = peptide incubated at 90°C for 15 min, MDR 1
[20] = peptide incubated at 90°C for 15 min, MDR 2
[21] = peptide incubated at 90°C for 15 min, MDR 3
[22] = peptide incubated at 90°C for 30 min, MDR 1
[23] = peptide incubated at 90°C for 30 min, MDR 2
[24] = peptide incubated at 90°C for 30 min, MDR 3
[25] = proteinase-K 1:100 (w/w), 37°C, 2 min, MDR 1
[26] = proteinase-K 1:100 (w/w), 37°C, 2 min, MDR 2

Work on FKCRRWQWRMKKLG [Lfcin (17–30)] yielded an MBC [1] of 32.0 µg/mL, an MIC [1] of 32.0 µg/mL and an MBC [2] of 32.0 µg/mL. It also gave an MIC [2] of 32.0 µg/mL, an MBC [3] of 32.0 µg/mL and an MIC [3] of 32.0 µg/mL. The MBC [4] was 32.0 µg/mL, the MIC [4] was 32.0 µg/mL and the MBC [5] was 32.0 µg/mL. It also gave an MIC [5] of 32.0 µg/mL, an MBC [6] of 32.0 µg/mL and an MIC [6] of 32.0 µg/mL. It also gave an MBC [7] of 32.0 µg/mL, an MIC [7] of 32.0 µg/mL and an MBC [8] of 32.0 µg/mL. It also gave an MIC [8] of 32.0 µg/mL, an MBC [9] of 32.0 µg/mL and an MIC [9] of 32.0 µg/mL. It also gave an MBC [10] of 32.0 µg/mL, an MIC [10] of 32.0 µg/mL and an MBC [11] of 32.0 µg/mL. For the same sequence, the MIC [11] was 32.0 µg/mL, the MBC [12] was 32.0 µg/mL and the MIC [12] was 32.0 µg/mL. The MBC [13] was 32.0 µg/mL, the MIC [13] was 32.0 µg/mL and the MBC [14] was 32.0 µg/mL. It also gave an MIC [14] of 32.0 µg/mL, an MBC [15] of 32.0 µg/mL and an MIC [15] of 32.0 µg/mL. For the same sequence, the MBC [16] was 32.0 µg/mL, the MIC [16] was 32.0 µg/mL and the MBC [17] was 32.0 µg/mL. It also gave an MIC [17] of 32.0 µg/mL, an MBC [18] of 32.0 µg/mL and an MIC [18] of 32.0 µg/mL. For the same sequence, the MBC [19] was 32.0 µg/mL, the MIC [19] was 32.0 µg/mL and the MBC [20] was 32.0 µg/mL. It also gave an MIC [20] of 32.0 µg/mL, an MBC [21] of 32.0 µg/mL and an MIC [21] of 32.0 µg/mL. For the same sequence, the MBC [22] was 32.0 µg/mL, the MIC [22] was 32.0 µg/mL and the MBC [23] was 32.0 µg/mL. The MIC [23] was 32.0 µg/mL, the MBC [24] was 32.0 µg/mL and the MIC [24] was 32.0 µg/mL. For the same sequence, the MBC (proteinase-K 1:100 (w/w), 37°C, 0.5 min, MDR 1) was 16.0 µg/mL, the MBC (proteinase-K 1:100 (w/w), 37°C, 0.5 min, MDR 2) was 32.0 µg/mL and the MBC (proteinase-K 1:100 (w/w), 37°C, 0.5 min, MDR 3) was 4.0 µg/mL. It also gave an MBC [25] of 16.0 µg/mL, an MIC [25] of 8.0 µg/mL and an MBC [26] of 32.0 µg/mL. It also gave an MIC [26] of 8.0 µg/mL and an MBC (proteinase-K 1:100 (w/w), 37°C, 2 min, MDR 3) of 4.0 µg/mL.
